Measured values published in US20220339143A1, “TAK-925 FOR USE IN TREATING NARCOLEPSY” (Takeda Pharmaceutical Company Limited, priority 2019, published 2022).
Like-named read-outs stand apart in the source and are kept apart here.

Assay: Single dose PK in healthy subjects (Cohorts 1, 2, S1 and S2), plasma
Format: in vivo, human
Conditions: human, plasma, iv; for concentration at 3 h after end of infusion: 3 hr After End of Infusions; for concentration at 4 h after end of infusion: 4 hr After End of Infusions; for concentration at 6 h after end of infusion: 6 hr After End of Infusions; for concentration at 10 h after end of infusion: 10 hr After End of Infusions; for concentration at 15 h after end of infusion: 15 hr After End of Infusions
Experimental: This study investigates (i) the safety and tolerability of Compound A (methyl (2R,3S)-3-((methylsulfonyl)amino)-2-(((cis-4-phenylcyclohexyl)oxy)methyl)piperidine-1-carboxylate) when a single dose given as a 9 hour continuous IV infusion is administered to healthy adults, healthy elderly subjects and patients with narcolepsy type 1 (NT1); (ii) the pharmacokinetics of Compound A when a single dose given as a 9 hour continuous IV infusion is administered to healthy adults, healthy elderly subjects and patients with narcolepsy type 1; and (iii) the pharmacodynamics (PD) effects of Compound A, primarily by evaluation of the sleep latency on MWT when a single dose given as a 9 hour continuous IV infusion is administered to patients with narcolepsy type 1.
Pharmacokinetics: Concentrations of Compound A in plasma, and CSF, and pharmacokinetics parameters.
On average, the time to reach the plateau appeared to be approximately 3 to 4 hours after the start of infusion. […] After switching off the IV infusion, Compound A plasma concentrations declined rapidly and in a biphasic manner with a mean terminal disposition phase t1/2z ranging approximately from 3.4 to 5.1 hours across all doses. […] Table 5 provides a summary of plasma concentrations of Compound A after a single IV infusion in healthy subjects. Table 6 provides a summary of pharmacokinetic parameters of Compound A after a single IV infusion in healthy subjects.

[1] = 240 mg, 240 mg single IV infusion, read-out: Plasma Concentration of Cmpd A, Maximum
[2] = 240 mg, 240 mg single IV infusion, read-out: Plasma Concentration of Cmpd A, Median
[3] = 240 mg, 240 mg single IV infusion, read-out: Plasma Concentration of Cmpd A, Q3
[4] = 240 mg, 240 mg single IV infusion, read-out: Plasma Concentration of Cmpd A, Q1

COC(=O)N1CCC[C@H](NS(C)(=O)=O)[C@@H]1CO[C@H]1CC[C@@H](c2ccccc2)CC1 [Compound A, methyl (2R,3S)-3-((methylsulfonyl)amino)-2-(((cis-4-phenylcyclohexyl)oxy)methyl)piperidine-1-carboxylate]
Cmax (134.4 mg, 134.4 mg single IV infusion, healthy subjects, read-out: Cmax Geo Mean): 305 ng/mL
Cmax (134.4 mg, 134.4 mg single IV infusion, healthy subjects, read-out: Cmax Mean): 308 ng/mL
Cmax (134.4 mg, 134.4 mg single IV infusion, healthy subjects, read-out: Cmax Median): 314 ng/mL
Vd (134.4 mg, 134.4 mg single IV infusion, healthy subjects, read-out: Vss Mean): 88.5 L
Vd (134.4 mg, 134.4 mg single IV infusion, healthy subjects, read-out: Vss Median): 87 L
Vd (134.4 mg, 134.4 mg single IV infusion, healthy subjects, read-out: Vz Mean): 285 L
Vd (134.4 mg, 134.4 mg single IV infusion, healthy subjects, read-out: Vz Median): 276 L
Tmax (134.4 mg, 134.4 mg single IV infusion, healthy subjects, read-out: tmax Mean): 6.33 h
Tmax (134.4 mg, 134.4 mg single IV infusion, healthy subjects, read-out: tmax Median): 6.5 h
AUC (180 mg, 180 mg single IV infusion, healthy subjects, read-out: AUC24 Geo Mean): 2990 ng·h/mL
AUC (180 mg, 180 mg single IV infusion, healthy subjects, read-out: AUC24 Mean): 3000 ng·h/mL
AUC (180 mg, 180 mg single IV infusion, healthy subjects, read-out: AUC24 Median): 3040 ng·h/mL
AUC(0-inf) (180 mg, 180 mg single IV infusion, healthy subjects, read-out: AUCinf Geo Mean): 3010 ng·h/mL
AUC(0-inf) (180 mg, 180 mg single IV infusion, healthy subjects, read-out: AUCinf Mean): 3020 ng·h/mL
AUC(0-inf) (180 mg, 180 mg single IV infusion, healthy subjects, read-out: AUCinf Median): 3050 ng·h/mL
AUC(0-t) (180 mg, 180 mg single IV infusion, healthy subjects, read-out: AUClast Geo Mean): 2990 ng·h/mL
AUC(0-t) (180 mg, 180 mg single IV infusion, healthy subjects, read-out: AUClast Mean): 3000 ng·h/mL
AUC(0-t) (180 mg, 180 mg single IV infusion, healthy subjects, read-out: AUClast Median): 3040 ng·h/mL
clearance (180 mg, 180 mg single IV infusion, healthy subjects, read-out: CL Mean (converted)): 997 mL/min
clearance (180 mg, 180 mg single IV infusion, healthy subjects, read-out: CL Median (converted)): 985 mL/min
concentration at 9 h (180 mg, 180 mg single IV infusion, healthy subjects, read-out: Ceoi Geo Mean): 324 ng/mL
concentration at 9 h (180 mg, 180 mg single IV infusion, healthy subjects, read-out: Ceoi Mean): 325 ng/mL
concentration at 9 h (180 mg, 180 mg single IV infusion, healthy subjects, read-out: Ceoi Median): 316 ng/mL
Cmax (180 mg, 180 mg single IV infusion, healthy subjects, read-out: Cmax Geo Mean): 344 ng/mL
Cmax (180 mg, 180 mg single IV infusion, healthy subjects, read-out: Cmax Mean): 345 ng/mL
Cmax (180 mg, 180 mg single IV infusion, healthy subjects, read-out: Cmax Median): 358 ng/mL
Vd (180 mg, 180 mg single IV infusion, healthy subjects, read-out: Vss Mean): 90.8 L
Vd (180 mg, 180 mg single IV infusion, healthy subjects, read-out: Vss Median): 81.5 L
Vd (180 mg, 180 mg single IV infusion, healthy subjects, read-out: Vz Mean): 291 L
Vd (180 mg, 180 mg single IV infusion, healthy subjects, read-out: Vz Median): 268 L
Tmax (180 mg, 180 mg single IV infusion, healthy subjects, read-out: tmax Mean): 6.33 h
Tmax (180 mg, 180 mg single IV infusion, healthy subjects, read-out: tmax Median): 6.5 h
AUC (240 mg, 240 mg single IV infusion, healthy subjects, read-out: AUC24 Geo Mean): 4540 ng·h/mL
AUC (240 mg, 240 mg single IV infusion, healthy subjects, read-out: AUC24 Mean): 4580 ng·h/mL
AUC (240 mg, 240 mg single IV infusion, healthy subjects, read-out: AUC24 Median): 4400 ng·h/mL
AUC(0-inf) (240 mg, 240 mg single IV infusion, healthy subjects, read-out: AUCinf Geo Mean): 4580 ng·h/mL
AUC(0-inf) (240 mg, 240 mg single IV infusion, healthy subjects, read-out: AUCinf Mean): 4630 ng·h/mL
AUC(0-inf) (240 mg, 240 mg single IV infusion, healthy subjects, read-out: AUCinf Median): 4430 ng·h/mL
AUC(0-t) (240 mg, 240 mg single IV infusion, healthy subjects, read-out: AUClast Geo Mean): 4540 ng·h/mL
AUC(0-t) (240 mg, 240 mg single IV infusion, healthy subjects, read-out: AUClast Mean): 4580 ng·h/mL
AUC(0-t) (240 mg, 240 mg single IV infusion, healthy subjects, read-out: AUClast Median): 4400 ng·h/mL
clearance (240 mg, 240 mg single IV infusion, healthy subjects, read-out: CL Mean (converted)): 880 mL/min
clearance (240 mg, 240 mg single IV infusion, healthy subjects, read-out: CL Median (converted)): 906 mL/min
concentration at 9 h (240 mg, 240 mg single IV infusion, healthy subjects, read-out: Ceoi Geo Mean): 493 ng/mL
concentration at 9 h (240 mg, 240 mg single IV infusion, healthy subjects, read-out: Ceoi Mean): 497 ng/mL
concentration at 9 h (240 mg, 240 mg single IV infusion, healthy subjects, read-out: Ceoi Median): 481 ng/mL
Cmax (240 mg, 240 mg single IV infusion, healthy subjects, read-out: Cmax Geo Mean): 506 ng/mL
Cmax (240 mg, 240 mg single IV infusion, healthy subjects, read-out: Cmax Mean): 512 ng/mL
Cmax (240 mg, 240 mg single IV infusion, healthy subjects, read-out: Cmax Median): 483 ng/mL
Vd (240 mg, 240 mg single IV infusion, healthy subjects, read-out: Vss Mean): 97.5 L
Vd (240 mg, 240 mg single IV infusion, healthy subjects, read-out: Vz Mean): 313 L
Vd (240 mg, 240 mg single IV infusion, healthy subjects, read-out: Vz Median): 293 L
Tmax (240 mg, 240 mg single IV infusion, healthy subjects, read-out: tmax Mean): 5.33 h
Tmax (240 mg, 240 mg single IV infusion, healthy subjects, read-out: tmax Median): 4 h
concentration at 0.5 h (240 mg, 240 mg single IV infusion, 0.5 hr, read-out: Plasma Concentration of Cmpd A, Maximum): 400 ng/mL
concentration at 0.5 hr (240 mg, 240 mg single IV infusion, 0.5 hr, read-out: Plasma Concentration of Cmpd A, Median): 264 ng/mL
concentration at 0.5 hr (240 mg, 240 mg single IV infusion, 0.5 hr, read-out: Plasma Concentration of Cmpd A, Q3): 368 ng/mL
concentration at 1 h (240 mg, 240 mg single IV infusion, 1 hr, read-out: Plasma Concentration of Cmpd A, Maximum): 465 ng/mL
concentration at 1 hr (240 mg, 240 mg single IV infusion, 1 hr, read-out: Plasma Concentration of Cmpd A, Median): 318 ng/mL
concentration at 1 hr (240 mg, 240 mg single IV infusion, 1 hr, read-out: Plasma Concentration of Cmpd A, Q3): 418 ng/mL
concentration at 1.5 h (240 mg, 240 mg single IV infusion, 1.5 hr, read-out: Plasma Concentration of Cmpd A, Maximum): 480 ng/mL
concentration at 1.5 hr (240 mg, 240 mg single IV infusion, 1.5 hr, read-out: Plasma Concentration of Cmpd A, Median): 370 ng/mL
concentration at 1.5 hr (240 mg, 240 mg single IV infusion, 1.5 hr, read-out: Plasma Concentration of Cmpd A, Q3): 463 ng/mL
concentration at 2 h (240 mg, 240 mg single IV infusion, 2 hr, read-out: Plasma Concentration of Cmpd A, Maximum): 482 ng/mL
concentration at 2 hr (240 mg, 240 mg single IV infusion, 2 hr, read-out: Plasma Concentration of Cmpd A, Median): 399 ng/mL
concentration at 2 hr (240 mg, 240 mg single IV infusion, 2 hr, read-out: Plasma Concentration of Cmpd A, Q3): 452 ng/mL
concentration at 3 h after end of infusion [1]: 91 ng/mL
concentration at 3 h after end of infusion [2]: 75.5 ng/mL
concentration at 3 h after end of infusion [3]: 87.1 ng/mL
concentration at 3 h (240 mg, 240 mg single IV infusion, 3 hr, read-out: Plasma Concentration of Cmpd A, Maximum): 582 ng/mL
concentration at 3 hr (240 mg, 240 mg single IV infusion, 3 hr, read-out: Plasma Concentration of Cmpd A, Median): 422 ng/mL
concentration at 3 h (240 mg, 240 mg single IV infusion, 3 hr, read-out: Plasma Concentration of Cmpd A, Q3): 515 ng/mL
concentration at 4 h after end of infusion [1]: 65.1 ng/mL
concentration at 4 h after end of infusion [2]: 56.5 ng/mL
concentration at 4 h after end of infusion [4]: 53.1 ng/mL
concentration at 4 h after end of infusion [3]: 62.7 ng/mL
concentration at 4 h (240 mg, 240 mg single IV infusion, 4 hr, read-out: Plasma Concentration of Cmpd A, Maximum): 650 ng/mL
concentration at 4 hr (240 mg, 240 mg single IV infusion, 4 hr, read-out: Plasma Concentration of Cmpd A, Median): 459 ng/mL
concentration at 4 h (240 mg, 240 mg single IV infusion, 4 hr, read-out: Plasma Concentration of Cmpd A, Q3): 579 ng/mL
concentration at 6 h after end of infusion [1]: 38.2 ng/mL
concentration at 6 h after end of infusion [2]: 28.4 ng/mL
concentration at 6 h after end of infusion [4]: 23 ng/mL
concentration at 6 h after end of infusion [3]: 36.9 ng/mL
concentration at 6 h (240 mg, 240 mg single IV infusion, 6 hr, read-out: Plasma Concentration of Cmpd A, Maximum): 532 ng/mL
concentration at 6 hr (240 mg, 240 mg single IV infusion, 6 hr, read-out: Plasma Concentration of Cmpd A, Median): 410 ng/mL
concentration at 6 h (240 mg, 240 mg single IV infusion, 6 hr, read-out: Plasma Concentration of Cmpd A, Q3): 514 ng/mL
concentration at 8 h (240 mg, 240 mg single IV infusion, 8 hr, read-out: Plasma Concentration of Cmpd A, Maximum): 562 ng/mL
concentration at 8 hr (240 mg, 240 mg single IV infusion, 8 hr, read-out: Plasma Concentration of Cmpd A, Median): 470 ng/mL
concentration at 8 hr (240 mg, 240 mg single IV infusion, 8 hr, read-out: Plasma Concentration of Cmpd A, Q3): 542 ng/mL
concentration at 9 h (240 mg, 240 mg single IV infusion, 9 hr, read-out: Plasma Concentration of Cmpd A, Maximum): 613 ng/mL
concentration at 9 hr (240 mg, 240 mg single IV infusion, 9 hr, read-out: Plasma Concentration of Cmpd A, Median): 481 ng/mL
concentration at 9 hr (240 mg, 240 mg single IV infusion, 9 hr, read-out: Plasma Concentration of Cmpd A, Q3): 539 ng/mL
concentration at 10 h after end of infusion [1]: 18.6 ng/mL
concentration at 10 h after end of infusion [2]: 16.6 ng/mL
concentration at 10 h after end of infusion [4]: 10.3 ng/mL
concentration at 10 h after end of infusion [3]: 17.5 ng/mL
concentration at 15 h after end of infusion [1]: 9.71 ng/mL
concentration at 15 h after end of infusion [2]: 7.64 ng/mL
concentration at 15 h after end of infusion [4]: 3.39 ng/mL
concentration at 15 h after end of infusion [3]: 8.82 ng/mL
clearance (IV administration, healthy subjects, read-out: mean estimates of plasma clearance): 717 to 1000 mL/min
